Results reported in PubChem BioAssay (NCI).
Where “and” joins values, the source holds several entries; their conditions need not be identical. Equal values may be shown once.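 Grown in 96-well plates, cells were treated for 48 hours with each compound at five concentrations. Insufficient inhibition: endpoint recorded as highest concentration tested. Abbreviation: GI50, concentration required for 50% inhibition of growth. TGI is the concentration that stops growth completely.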

Assays:
Test in all cases: NCI tumour cell line growth inhibition, 48 h
NCI-H226 lung = test system: NCI-H226 lung
SK-MEL-2 melanoma = test system: SK-MEL-2 melanoma
HOP-92 NSCLC = test system: HOP-92 NSCLC
U251 CNS = test system: U251 CNS
UACC-257 melanoma = test system: UACC-257 melanoma
MDA-MB-435 = test system: MDA-MB-435
SW-620 colon = test system: SW-620 colon
NCI-H460 lung = test system: NCI-H460 lung
SNB-19 CNS = test system: SNB-19 CNS
NCI/ADR-RES ovarian = test system: NCI/ADR-RES ovarian

SMILES	GI50 (NCI-H226 lung)	TGI (NCI-H226 lung)	GI50 (SK-MEL-2 melanoma)	TGI (SK-MEL-2 melanoma)	GI50 (HOP-92 NSCLC)	TGI (HOP-92 NSCLC)	GI50 (U251 CNS)	TGI (U251 CNS)	GI50 (UACC-257 melanoma)	TGI (UACC-257 melanoma)	GI50 (MDA-MB-435)	TGI (MDA-MB-435)	GI50 (SW-620 colon)	TGI (SW-620 colon)	GI50 (NCI-H460 lung)	TGI (NCI-H460 lung)	GI50 (SNB-19 CNS)	TGI (SNB-19 CNS)	GI50 (NCI/ADR-RES ovarian)	TGI (NCI/ADR-RES ovarian)
COc1ccc2c(c1)c(-c1nc(-c3cn(C)c4ccncc34)cs1)cn2C	1.83 µM	3.75 µM	1.76 µM	3.28 µM	1.96 µM	3.79 µM	1.85 µM	3.4 µM	1.9 µM	3.6 µM	1.59 µM	2.97 µM	1.96 µM	3.73 µM	1.94 µM	3.68 µM	2.26 µM	4.73 µM		
CCCCCCCCCCCCSC(=S)c1c(C)[nH]n(-c2ccccc2)c1=O		> 50 µM				> 50 µM		> 50 µM		29.5 µM				> 50 µM				> 50 µM		
Fc1cccc(COc2ccc(Nc3ncnc4onc(-c5ccccc5)c34)cc2)c1	3.06 µM	> 100 µM	0.426 µM	> 100 µM	0.264 µM	62.8 µM	0.215 µM	> 86.8 µM	37.5 µM	> 100 µM			0.139 µM	> 100 µM	0.0661 µM	> 53.3 µM	0.339 µM	> 100 µM	3.02 µM	15.7 µM
Cc1ccc(OCC2CO2)c(Br)c1 (stereo not given)		34.1 µM				36.5 µM		32.6 µM		> 100 µM		48.2 µM		33 µM		66 µM		> 100 µM		33 µM
Nc1nc(=O)n(C2CCC(CO)O2)cc1F (stereo not given)		> 100 µM		> 100 µM		> 100 µM		> 100 µM		> 100 µM				> 100 µM		> 100 µM		> 100 µM		
CC(C)(C)OC(=O)C1C(=O)NC(=O)CC1CC(OCc1ccccc1)C(OCc1ccccc1)C(COCc1ccccc1)OCc1ccccc1 (stereo not given)	33 µM and 14 µM	> 100 µM				> 100 µM and 68.1 µM	19.6 µM and 5.39 µM	> 100 µM and 56.3 µM	47.8 µM and 15.3 µM	> 100 µM	45.1 µM and 9.81 µM	> 100 µM and 66.1 µM	74.5 µM and 23.4 µM	> 100 µM	32.7 µM and 12.1 µM	> 100 µM	77.1 µM and 35.6 µM	> 100 µM	36.8 µM and 12.1 µM	> 100 µM and 61.7 µM
O=C(C[n+]1ccccc1)N/N=C(/CCC(=O)N(Cc1ccccc1)Cc1ccccc1)CC(=O)c1ccccc1		> 100 µM		> 100 µM		> 100 µM		> 100 µM		> 100 µM				> 100 µM		> 100 µM		> 100 µM		
COC(=O)/C=C1/SC(=Nc2cccc(Cl)c2)N(CCc2c[nH]c3ccc(O)cc23)C1=O	1.65 µM	3.08 µM	1.53 µM	3.08 µM	2 µM	4.67 µM	1.76 µM	3.51 µM	1.96 µM	3.99 µM	1.68 µM	3.96 µM			2.04 µM	4.1 µM	2.57 µM	6.88 µM	2.41 µM	6.89 µM
CSC(=O)C[C@@]12O[C@@H]([C@@H](C)C3CCC4[C@@H]5C(O)CC6=CC(=O)C=C[C@]6(C)C5CC[C@@]43C)C[C@](C)(O1)C(C)(C)O2 (stereo not given in full)		38.7 µM		45 µM		23 µM		25.2 µM		26.9 µM				33.2 µM		35.8 µM		33.8 µM		
